Assay results taken from the NIST ThermoML archive (doi:10.1016/j.jct.2016.02.010).

Experiments:
[1] = Crystal; for vapor or sublimation pressure: Calculated from knudsen effusion weight loss
[2] = Molar enthalpy of transition or fusion; settings: Crystal; DSC
[3] = molar heat capacity at constant pressure; settings: 101.33 kPa, Crystal, Small sample (50 mg) DSC

OC(c1ccccc1)c1ccccc1 [diphenylmethanol]
Settings | mass density [kg/m3]
[1], 298 K, 101.33 kPa, Pycnometric method | 1210

Settings | Normal melting temperature [°C] | molar heat capacity at constant pressure [J/K/mol] | vapor or sublimation pressure [kPa]
[1], 301.97 K | – | – | 0.000128
[1], 304.52 K | – | – | 0.00018
[1], 305.16 K | – | – | 0.000198
[1], 308.1 K | – | – | 0.00028
[1], 311.41 K | – | – | 0.000446
[1], 314.06 K | – | – | 0.00061
[1], 317.02 K | – | – | 0.00091
[1], DTA | 66.2 | – | –
[3], 259.15 K | – | 202.8 | –
[3], 260.15 K | – | 203.3 | –
[3], 261.15 K | – | 203.9 | –
[3], 262.15 K | – | 204.6 | –
[3], 263.15 K | – | 205.2 | –
[3], 264.15 K | – | 206.1 | –
[3], 265.15 K | – | 206.8 | –
[3], 266.15 K | – | 207.6 | –
[3], 267.15 K | – | 208.5 | –
[3], 268.15 K | – | 209.5 | –
[3], 269.15 K | – | 210.3 | –
[3], 270.15 K | – | 211.1 | –
[3], 271.15 K | – | 211.7 | –
[3], 272.15 K | – | 212.5 | –
[3], 273.15 K | – | 213.8 | –
[3], 274.15 K | – | 214.1 | –
[3], 275.15 K | – | 215.2 | –
[3], 276.15 K | – | 215.9 | –
[3], 277.15 K | – | 216.9 | –
[3], 278.15 K | – | 216.8 | –
[3], 279.15 K | – | 217.6 | –
[3], 280.15 K | – | 218.5 | –
[3], 281.15 K | – | 219.4 | –
[3], 282.15 K | – | 220.2 | –
[3], 283.15 K | – | 221 | –
[3], 284.15 K | – | 221.8 | –
[3], 285.15 K | – | 222.8 | –
[3], 286.15 K | – | 223.3 | –
[3], 287.15 K | – | 224.3 | –
[3], 288.15 K | – | 225 | –
[3], 289.15 K | – | 225.8 | –
[3], 290.15 K | – | 226.5 | –
[3], 291.15 K | – | 227.4 | –
[3], 292.15 K | – | 228.2 | –
[3], 293.15 K | – | 229.1 | –
[3], 294.15 K | – | 229.9 | –
[3], 295.15 K | – | 230.7 | –
[3], 296.15 K | – | 231.9 | –
[3], 297.15 K | – | 232 | –
[3], 298.15 K | – | 233 | –
[3], 299.15 K | – | 233.7 | –
[3], 300.15 K | – | 234.5 | –
[3], 301.15 K | – | 235.4 | –
[3], 302.15 K | – | 236.2 | –
[3], 303.15 K | – | 237 | –
[3], 304.15 K | – | 237.8 | –
[3], 305.15 K | – | 238.7 | –
[3], 306.15 K | – | 239.6 | –
[3], 307.15 K | – | 240.7 | –
[3], 308.15 K | – | 241.8 | –
[3], 309.15 K | – | 242.5 | –
[3], 310.15 K | – | 243.3 | –
[3], 311.15 K | – | 244.2 | –
[3], 312.15 K | – | 245.2 | –
[3], 313.15 K | – | 246 | –
[3], 314.15 K | – | 247 | –
[3], 315.15 K | – | 247.8 | –
[3], 316.15 K | – | 248.8 | –
[3], 317.15 K | – | 249.8 | –
[3], 318.15 K | – | 250.7 | –
[3], 319.15 K | – | 251.7 | –
[3], 320.15 K | – | 252.5 | –
[3], 321.15 K | – | 253.5 | –
[3], 322.15 K | – | 254.4 | –
[3], 323.15 K | – | 255.3 | –
[3], 324.15 K | – | 256.4 | –
[3], 325.15 K | – | 257.4 | –
[3], 326.15 K | – | 258.5 | –
[3], 327.15 K | – | 259.5 | –
[3], 328.15 K | – | 260.7 | –
[3], 329.15 K | – | 261.8 | –
[3], 330.15 K | – | 263.1 | –
[3], 331.15 K | – | 265.1 | –
[3], 332.15 K | – | 267 | –

Settings | Molar enthalpy of transition or fusion [kcal/mol]
[2] | 5.66
